The target of series [1] is T1, CYP3A4 (Homo sapiens, UniProt P08684). The note with it: cited from earlier work; for Km: according to US 6,207,404 (BFC, BzRes) or Walsky and Obach 2004 (Midazolam).
Series [2] deals with T2, recombinant human CPY3A4 (Homo sapiens, UniProt P08684).
T2 construct: purchased BD Biosciences (Supersomes)
Nature of the series: Catalytic activity of CYP3A4 for the reaction with substance 1a. In kind it is biochemical. On the procedure:
After incubation for 20 minutes at 37°C the metabolite 1b was quantified using liquid chromatography followed by mass spectrometry. For this reaction 4.5 pmol/min/pmol CYP3A4 could be determined as activity of the enzyme. According to US 6,207,404 the activity of CYP3A4 for the reaction of BFC at a concentration of 50 µM is about 1.5 pmol/min/pmol CYP3A4. […] For the determination of the catalytic activity of other CYP-enzymes with respect to the reaction of substance 1a 2 µM of substance 1a were contacted with 15 pmol/ml CYP enzyme (Supersomes®, BD Biosciences) and 2 mM NADPH in 100 mM potassium phosphate puffer (pH 7.4; 3 mM MgCl2) with the exception of CYP3A4 that was used at a concentration of 5 pmol/ml.

For series [3], the target named is T3, CYP1B1 (Homo sapiens, UniProt Q16678).
T3 construct: purchased BD Biosciences (Supersomes)
T3 sequence (Q16678 1-543): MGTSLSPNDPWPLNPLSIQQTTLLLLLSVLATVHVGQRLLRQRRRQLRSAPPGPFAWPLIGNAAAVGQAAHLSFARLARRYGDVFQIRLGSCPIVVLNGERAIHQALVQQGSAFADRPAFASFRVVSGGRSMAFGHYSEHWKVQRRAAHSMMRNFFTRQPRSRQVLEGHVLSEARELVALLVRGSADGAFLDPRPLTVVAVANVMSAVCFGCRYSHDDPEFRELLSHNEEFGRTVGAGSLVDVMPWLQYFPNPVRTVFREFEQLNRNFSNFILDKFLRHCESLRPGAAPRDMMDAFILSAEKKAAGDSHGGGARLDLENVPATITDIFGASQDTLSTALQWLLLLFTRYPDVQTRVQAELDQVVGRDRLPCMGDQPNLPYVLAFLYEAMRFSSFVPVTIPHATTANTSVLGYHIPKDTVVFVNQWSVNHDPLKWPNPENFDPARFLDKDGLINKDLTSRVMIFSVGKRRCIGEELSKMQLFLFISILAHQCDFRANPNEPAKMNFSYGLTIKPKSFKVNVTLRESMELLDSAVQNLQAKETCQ
Nature of the series: Catalytic activity of other CYP enzymes for the reaction of substance 1a. In kind it is biochemical. As to conditions: 2 µM substance 1a, 15 pmol/ml CYP enzyme, Fig. 2. On the procedure:
(§1) For the determination of the catalytic activity of other CYP-enzymes with respect to the reaction of substance 1a 2 µM of substance 1a were contacted with 15 pmol/ml CYP enzyme (Supersomes®, BD Biosciences) and 2 mM NADPH in 100 mM potassium phosphate puffer (pH 7.4; 3 mM MgCl2) with the exception of CYP3A4 that was used at a concentration of 5 pmol/ml.

Series [4] deals with T4, CYP2D6 (Homo sapiens, UniProt P10635).
T4 construct: purchased BD Biosciences (Supersomes)
The series is described as above. In kind it is biochemical. The note with it: 2 µM substance 1a, 15 pmol/ml CYP enzyme, Fig. 2. The procedure: as §1

Series [5] addresses T1, CYP3A4. Nature of the series: Determination of Km and Vmax of the CYP3A4-catalyzed O-dealkylation reaction (LC-MS quantification of reaction product 1b). It counts as biochemical. More on the design: purchased BD Biosciences (Supersomes). As to conditions: Vmax comparison with BFC. On the procedure:
The Michaelis-Menten constant (Km) and the maximal reaction velocity (Vmax) are important parameters for inhibition assays. To determine the inhibitory activity of test compounds the substrate concentration in the assay should be about the Km value. […] After incubation for 20 minutes at 37°C the reaction product 1b was quantified using mass spectrometry after liquid chromatography. […] For the calculation of Km and Vmax the Sigma Plot 10.0 software with enzyme kinetic module (SPSS, Inc., Chicago, IL, USA) was used.

Where [6] appears, read: according to US 6,207,404 (BzRes) or Walsky and Obach 2004 (Midazolam).

Read-outs that look alike come from different tables or passages of the source.

T1 sequence (P08684 whole entry): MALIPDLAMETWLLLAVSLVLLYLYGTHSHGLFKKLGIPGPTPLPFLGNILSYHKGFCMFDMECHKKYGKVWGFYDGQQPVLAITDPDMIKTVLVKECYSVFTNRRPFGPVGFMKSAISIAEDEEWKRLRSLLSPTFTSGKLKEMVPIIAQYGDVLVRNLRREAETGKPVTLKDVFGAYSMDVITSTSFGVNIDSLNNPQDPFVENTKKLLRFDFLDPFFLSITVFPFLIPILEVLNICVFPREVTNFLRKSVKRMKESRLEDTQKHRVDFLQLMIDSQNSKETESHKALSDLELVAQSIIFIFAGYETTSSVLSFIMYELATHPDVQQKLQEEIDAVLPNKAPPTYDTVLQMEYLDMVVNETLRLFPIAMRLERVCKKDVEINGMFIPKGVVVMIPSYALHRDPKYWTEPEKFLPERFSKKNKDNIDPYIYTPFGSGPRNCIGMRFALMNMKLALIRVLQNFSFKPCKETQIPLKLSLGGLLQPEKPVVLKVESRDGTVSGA
T2 sequence (P08684 whole entry): as above
T4 sequence (P10635 whole entry): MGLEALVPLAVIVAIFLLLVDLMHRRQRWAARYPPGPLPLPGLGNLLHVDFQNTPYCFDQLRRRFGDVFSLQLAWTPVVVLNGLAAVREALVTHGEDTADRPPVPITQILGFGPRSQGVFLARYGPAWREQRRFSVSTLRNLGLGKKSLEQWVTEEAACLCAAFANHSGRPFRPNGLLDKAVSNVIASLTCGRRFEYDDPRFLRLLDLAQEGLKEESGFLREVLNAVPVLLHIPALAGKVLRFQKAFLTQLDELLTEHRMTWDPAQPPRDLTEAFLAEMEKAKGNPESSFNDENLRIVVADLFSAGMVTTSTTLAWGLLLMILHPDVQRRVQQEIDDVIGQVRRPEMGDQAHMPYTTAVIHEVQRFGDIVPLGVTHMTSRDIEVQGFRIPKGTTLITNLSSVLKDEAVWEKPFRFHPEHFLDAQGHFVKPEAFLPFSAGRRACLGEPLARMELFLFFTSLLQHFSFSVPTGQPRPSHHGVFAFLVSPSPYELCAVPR

Consider `O=c1cc(C(F)(F)F)c2ccc(OCc3ccccc3)cc2o1` [BFC, 7-benzyloxy-4-trifluoromethylcumarin], for which, in series [1] (BFC at a concentration of 50 µM, according to US 6,207,404), the “activity of CYP3A4 for the reaction of BFC” value is recorded as “about 1.5 pmol/min/pmol CYP3A4”. For the same compound, the Km in series [1] is greater than 200 µM. Further, the Vmax in series [1] (at 40 µM BFC, according to US 6,207,404) is 1.5 (at 40 µM BFC) pmol/min/pmol CYP3A4.
Regarding `O=c1ccc2nc3ccc(OCc4ccccc4)cc3oc-2c1` [BzRes, benzyloxyresorufin], the Michaelis-Menten constant (Km) in series [1] was 38 µM. For the same compound, in series [1] (setting [6]), the Vmax is listed as 0.3 pmol/min/pmol CYP3A4.
Take `Cc1ncc2n1-c1ccc(Cl)cc1C(c1ccccc1F)=NC2` [Midazolam]: in series [1], the Km is 0.6 µM. For the same compound, in series [1] (setting [6]), the Vmax was 16.3 pmol/min/pmol CYP3A4.
In the case of `Cc1c2[nH]c3cc(OCc4ccccc4)ccc3c2cc[n+]1Cc1ccccc1.O=C([O-])C(F)(F)F` [Substance 1a, 2-benzyl-7-benzyloxy-1-methyl-9H-pyrido[3,4-b]indol-2-ium trifluoroacetate salt], the “activity of the enzyme relative to the reaction of BFC” value in series [2] (2 µM 1a versus 50 µM BFC) stood at 3 fold. Moreover, the “activity of the enzyme” value in series [2] (2 µM substance 1a, 5 pmol/ml CYP3A4, 2 mM NADPH, 20 minutes at 37°C) is 4.5 pmol/min/pmol CYP3A4. Moreover, the “reaction of substrate 1a to reaction product 1b catalyzed by enzyme” value is reported as “could be catalyzed” in series [2] (2 µM substance 1a, CYP3A4 at 5 pmol/ml, Fig. 2); “could be catalyzed” in series [3]; “could be catalyzed” in series [4]. In series [5], the “reaction velocity relative to BFC” value is reported as “about 5 fold”.

The Km is the concentration of substrate that gives half-maximal velocity.

These data come from EP2151441A1, “Beta-carbolin-derivates as substrates for an enzyme” (Julius-Maximilians-Universität Würzburg, priority 2008, dated 2010).
